Laboratory results from PubChem BioAssay AID248 (DTP/NCI, 2004).
Values joined by “and” are separate entries in the source; they are usually repeats but may differ in a detail not shown here. Equal entries are not always repeated. Toxic doses and inconclusive results are not listed.

Test system: L1210 leukemia ip in BDF1 mice, survival T/C
Experiment: NCI In Vivo Anticancer Drug Screen. Data for tumor model L1210 Leukemia (intraperitoneal) in B6D2F1 (BDF1) mice
Conditions: endpoint: mean survival time, higher = longer survival
How it was run: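 Transplantable tumor model; survival measured in treated vs vehicle control mice. Value = treated/control.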

[1] = dose: 400.0 mg/kg/injection, schedule: Q01DX001 (ip), vehicle: carboxymethylcellulose (CMC)
[2] = dose: 100.0 mg/kg/injection, schedule: Q01DX009 (ip), vehicle: Klucel (hydroxypropylcellulose) (HPC)
[3] = dose: 200.0 mg/kg/injection, schedule: Q01DX009 (ip), vehicle: Klucel (hydroxypropylcellulose) (HPC)
[4] = dose: 400.0 mg/kg/injection, schedule: Q01DX009 (ip), vehicle: Klucel (hydroxypropylcellulose) (HPC)
[5] = dose: 100.0 mg/kg/injection, schedule: Q01DX009 (ip), vehicle: saline with Tween-80
[6] = dose: 100.0 mg/kg/injection, schedule: Q04DX002 (ip), vehicle: saline with Tween-80
[7] = dose: 200.0 mg/kg/injection, schedule: Q01DX009 (ip), vehicle: saline with Tween-80
[8] = dose: 100.0 mg/kg/injection, schedule: Q04DX003 (ip), vehicle: saline with Tween-80
[9] = dose: 100.0 mg/kg/injection, schedule: Q01DX001 (ip), vehicle: saline
[10] = dose: 200.0 mg/kg/injection, schedule: Q01DX001 (ip), vehicle: saline
[11] = dose: 400.0 mg/kg/injection, schedule: Q01DX001 (ip), vehicle: saline
[12] = dose: 100.0 mg/kg/injection, schedule: Q01DX009 (ip), vehicle: saline
[13] = dose: 200.0 mg/kg/injection, schedule: Q01DX009 (ip), vehicle: saline

With `C/C(=N\NC(N)=S)C(C)(C)O` the T/C (dose: 100.0 mg/kg/injection, schedule: Q01DX001 (ip), vehicle: carboxymethylcellulose (CMC)) was 110 % of control, the T/C (dose: 200.0 mg/kg/injection, schedule: Q01DX001 (ip), vehicle: carboxymethylcellulose (CMC)) was 108 % of control and the T/C [1] was 104 % of control.
With `Cc1ccc(CNC(=O)C2CCCCC2C(=O)O)cc1` (configuration not stated) the T/C [2] was 100 % of control, the T/C [3] was 96 % of control and the T/C [4] was 93 % of control.
With `O=c1cccccc1O.O=c1cccccc1O.O=c1cccccc1O.[Cr]` the T/C (dose: 75.0 mg/kg/injection, schedule: Q04DX003 (ip), vehicle: saline) was 100 % of control, the T/C (dose: 150.0 mg/kg/injection, schedule: Q04DX003 (ip), vehicle: saline) was 104 % of control and the T/C (dose: 300.0 mg/kg/injection, schedule: Q04DX003 (ip), vehicle: saline) was 90 % of control.
With `CC(=O)OCN1C(=O)N(COC(C)=O)C(c2ccccc2)(c2ccccc2)C1=O` the T/C [5] was 102 % of control, the T/C [6] was 102 % of control and the T/C [7] was 87 % of control. The T/C (dose: 200.0 mg/kg/injection, schedule: Q04DX002 (ip), vehicle: saline with Tween-80) was 102 % of control and the T/C (dose: 400.0 mg/kg/injection, schedule: Q04DX002 (ip), vehicle: saline with Tween-80) was 106 % of control.
In the case of `O=C1C=CC(c2ccccc2)(c2ccccc2)C=C1`, the T/C (dose: 25.0 mg/kg/injection, schedule: Q04DX002 (ip), vehicle: saline with Tween-80) is reported as 93 % of control, the T/C (dose: 50.0 mg/kg/injection, schedule: Q04DX002 (ip), vehicle: saline with Tween-80) is reported as 101 % of control and the T/C [6] is reported as 96 % of control.
With `CNC(=S)N/N=C(\c1ccccc1)c1ccccn1` the T/C (dose: 100.0 mg/kg/injection, schedule: Q01DX001 (ip), vehicle: saline with Tween-80) was 95 % of control, the T/C [5] was 100 % of control and the T/C [8] was 104 % of control. The T/C (dose: 200.0 mg/kg/injection, schedule: Q01DX001 (ip), vehicle: saline with Tween-80) was 106 % of control, the T/C [7] was 102 % of control and the T/C (dose: 200.0 mg/kg/injection, schedule: Q04DX003 (ip), vehicle: saline with Tween-80) was 95 % of control. The T/C (dose: 400.0 mg/kg/injection, schedule: Q01DX001 (ip), vehicle: saline with Tween-80) was 104 % of control, the T/C (dose: 400.0 mg/kg/injection, schedule: Q01DX009 (ip), vehicle: saline with Tween-80) was 102 % of control and the T/C (dose: 400.0 mg/kg/injection, schedule: Q04DX003 (ip), vehicle: saline with Tween-80) was 98 % of control.
`O=C1CC(c2ccc(O)cc2)C2(O1)C(=O)OC(C(O)CO)C2O` (configuration not stated) was tested, and the T/C [9] was 98 % of control, the T/C [10] was 101 % of control and the T/C [11] was 96 % of control.
`CCC/C=C/CC1CC2CC(C1C)C2(C)C` (configuration not stated) was tested, and the T/C (dose: 50.0 mg/kg/injection, schedule: Q01DX009 (ip), vehicle: other) was 97 % of control, the T/C (dose: 100.0 mg/kg/injection, schedule: Q01DX009 (ip), vehicle: other) was 101 % of control and the T/C (dose: 200.0 mg/kg/injection, schedule: Q01DX009 (ip), vehicle: other) was 90 % of control.
For `CCCCOC(=O)C(C)(O)C(Cl)c1ccccc1` (configuration not stated), the T/C (dose: 100.0 mg/kg/injection, schedule: Q04DX002 (ip), vehicle: saline) was 100 % of control, the T/C (dose: 200.0 mg/kg/injection, schedule: Q04DX002 (ip), vehicle: saline) was 95 % of control and the T/C (dose: 400.0 mg/kg/injection, schedule: Q04DX002 (ip), vehicle: saline) was 91 % of control.
`CCCCN=C(NCCCC)c1ccc(NC(=O)c2ccc(C(=O)Nc3ccc(C(=NCCCC)NCCCC)cc3)cc2)cc1` was tested, and the T/C (dose: 0.12 mg/kg/injection, schedule: Q01DX015 (ip), vehicle: methylcellulose (MC)) was 94 % of control, the T/C (dose: 0.25 mg/kg/injection, schedule: Q01DX015 (ip), vehicle: methylcellulose (MC)) was 94 % of control and the T/C (dose: 0.5 mg/kg/injection, schedule: Q01DX015 (ip), vehicle: methylcellulose (MC)) was 90 % of control. For the same compound, the T/C (dose: 1.0 mg/kg/injection, schedule: Q01DX015 (ip), vehicle: methylcellulose (MC)) was 102 % of control, the T/C (dose: 2.0 mg/kg/injection, schedule: Q01DX015 (ip), vehicle: methylcellulose (MC)) was 108 % of control and the T/C (dose: 4.0 mg/kg/injection, schedule: Q01DX015 (ip), vehicle: methylcellulose (MC)) was 110 % of control. For the same compound, the T/C (dose: 8.0 mg/kg/injection, schedule: Q01DX015 (ip), vehicle: methylcellulose (MC)) was 98 % of control.
For `CCOC1=NC(C)(C)CC(C)O1` (configuration not stated), the T/C (dose: 25.0 mg/kg/injection, schedule: Q04DX003 (ip), vehicle: saline with Tween-80) was 95 % of control, the T/C (dose: 50.0 mg/kg/injection, schedule: Q04DX003 (ip), vehicle: saline with Tween-80) was 101 % of control and the T/C [8] was 102 % of control.
`Cc1ccc(C(=O)OCC2OC(n3cnc4c(=S)nc(N)[nH]c43)C(OC(=O)c3ccc(C)cc3)C2OC(=O)c2ccc(C)cc2)cc1` (configuration not stated) was tested, and the T/C [9] was 95 % of control, the T/C [12] was 106 % of control and the T/C [10] was 101 % of control. For the same compound, the T/C [13] was 112 % of control, the T/C [1] was 111 % of control and the T/C [11] was 106 % of control. The T/C (dose: 400.0 mg/kg/injection, schedule: Q01DX009 (ip), vehicle: saline) was 116 % of control, the T/C (dose: 600.0 mg/kg/injection, schedule: Q01DX001 (ip), vehicle: carboxymethylcellulose (CMC)) was 105 % of control and the T/C (dose: 800.0 mg/kg/injection, schedule: Q01DX001 (ip), vehicle: carboxymethylcellulose (CMC)) was 119 % of control. The T/C (dose: 800.0 mg/kg/injection, schedule: Q01DX009 (ip), vehicle: saline) was 172 % of control and the T/C (dose: 1000.0 mg/kg/injection, schedule: Q01DX001 (ip), vehicle: carboxymethylcellulose (CMC)) was 116 % of control.
For `COC(=O)C1=C(C(=O)OC)[C@H]2O[C@H]1[C@@H]1O[C@@H]12`, the T/C (dose: 6.25 mg/kg/injection, schedule: Q01DX009 (ip), vehicle: saline) was 104 % of control, the T/C (dose: 12.5 mg/kg/injection, schedule: Q01DX001 (ip), vehicle: saline) was 99 % of control and the T/C (dose: 12.5 mg/kg/injection, schedule: Q01DX009 (ip), vehicle: saline) was 100 % of control. The T/C (dose: 25.0 mg/kg/injection, schedule: Q01DX001 (ip), vehicle: saline) was 100 % of control.
With `Cc1cnc(N(C)CC(=O)O)nc1-c1ccccc1O` the T/C (dose: 100.0 mg/kg/injection, schedule: Q04DX002 (ip), vehicle: Klucel (hydroxypropylcellulose) (HPC)) was 96 % of control and the T/C (dose: 200.0 mg/kg/injection, schedule: Q04DX002 (ip), vehicle: Klucel (hydroxypropylcellulose) (HPC)) was 89 % of control.
For `O[C@H]1[C@H]2c3cc4c(cc3CN3CCC(=C[C@@H]1O)[C@H]23)OCO4`, the T/C (dose: 50.0 mg/kg/injection, schedule: Q01DX Z (ip), vehicle: steriod suspending solution) was 120 % of control, the T/C (dose: 75.0 mg/kg/injection, schedule: Q01DX Z (ip), vehicle: steriod suspending solution) was 96 % of control and 105 % of control and the T/C (dose: 100.0 mg/kg/injection, schedule: Q01DX Z (ip), vehicle: steriod suspending solution) was 114 % of control.
With `CCOC(=O)c1ccc(N=NN(C)C(C)CC)cc1` (configuration not stated) the T/C (dose: 100.0 mg/kg/injection, schedule: Q01DX001 (ip), vehicle: Klucel (hydroxypropylcellulose) (HPC)) was 113 % of control, the T/C (dose: 100.0 mg/kg/injection, schedule: Q04DX003 (ip), vehicle: Klucel (hydroxypropylcellulose) (HPC)) was 102 % of control and the T/C (dose: 200.0 mg/kg/injection, schedule: Q01DX001 (ip), vehicle: Klucel (hydroxypropylcellulose) (HPC)) was 101 % of control. The T/C (dose: 200.0 mg/kg/injection, schedule: Q04DX003 (ip), vehicle: Klucel (hydroxypropylcellulose) (HPC)) was 118 % of control, the T/C (dose: 400.0 mg/kg/injection, schedule: Q01DX001 (ip), vehicle: Klucel (hydroxypropylcellulose) (HPC)) was 124 % of control and the T/C [4] was 166 % of control. The T/C (dose: 400.0 mg/kg/injection, schedule: Q04DX003 (ip), vehicle: Klucel (hydroxypropylcellulose) (HPC)) was 122 % of control.
For `CCN(CC)c1ccc(/C=C\C(=O)c2ccccc2)cc1`, the T/C [2] was 97 % of control, the T/C [3] was 100 % of control and the T/C [4] was 100 % of control.
With `O=C(C=C(C(F)(F)F)C(F)(F)F)c1ccccc1` the T/C [9] was 100 % of control, the T/C [12] was 91 % of control and the T/C [10] was 94 % of control. The T/C [13] was 100 % of control and the T/C [11] was 109 % of control.
For `S=C(NCc1ccc(Cl)cc1Cl)Nc1ccccc1`, the T/C (dose: 25.0 mg/kg/injection, schedule: Q01DX009 (ip), vehicle: Klucel (hydroxypropylcellulose) (HPC)) was 101 % of control, the T/C (dose: 50.0 mg/kg/injection, schedule: Q01DX009 (ip), vehicle: Klucel (hydroxypropylcellulose) (HPC)) was 98 % of control and the T/C [2] was 103 % of control and 109 % of control. The T/C [3] was 88 % of control.
With `CC(I)CNc1ccc(C(=O)O)c(O)c1` (configuration not stated) the T/C (dose: 100.0 mg/kg/injection, schedule: Q04DX003 (ip), vehicle: gum acacia) was 97 % of control, the T/C (dose: 200.0 mg/kg/injection, schedule: Q04DX003 (ip), vehicle: gum acacia) was 89 % of control and the T/C (dose: 400.0 mg/kg/injection, schedule: Q04DX003 (ip), vehicle: gum acacia) was 94 % of control.
